Source: patent US20220193047A1, “METHODS OF ENHANCING RADIOTHERAPY USING FERROPTOSIS INDUCERS AS RADIOSENSITIZERS” (THE TRUSTEES OF COLUMBIA UNIVERSITY IN THE CITY OF NEW YORK, priority 2019, published 2022)

Tests used:
[1] = test system: human glioma slice cultures; experiment: Human glioma organotypic slice cultures, H2DCFDA ROS by flow cytometry; type: cell-based
Method: Human surgical specimens were collected from Columbia University Medical Center operating theaters in accordance with Institutional Review Board protocols. Surgical specimens were deidentified, placed in a sterile 50 mL conical tube containing ice-cold sucrose solution (210 mM sucrose, 10 mM glucose, 2.5 mM KCl, 1.25 mM NaH2PO4, 0.5 mM CaCl2), 7 mM MgCl2 and 26 mM NaHCO3). Tissue specimens were let rest in the sucrose solution for 20 minutes. Tissue specimens were then cut into 300 μm sections using a Mcllwain Tissue Chopper. Sections after cutting were let rest in the sucrose solution for 20 minutes. Then the tissue sections were transferred onto Millicell cell culture inserts ([…], 30 mm diameter) and placed in 6-well plates containing 1.5 mL of media. The media consisted of DMEM/F12 plus N−2 Supplement. […]
To further study the potential of combining small-molecule ferroptosis inducers and radiation for human therapeutic use, ex vivo samples of human glioma, which have been immediately cut from freshly resected tumors and grown as organotypic slice cultures, were used as previously described (Parker et al., 2017). De-identified patient information for these tumor samples are recorded in Table 4. […] Tumor cell viability within slices was not assessed, as the number of tumor cells embedded in each slice cannot be normalized between slices.

[2] = test system: PTGS2 mRNA; experiment: RT-qPCR of PTGS2 mRNA; type: cell-based; settings: HT-1080, 6 Gy radiation, 24 hours; 100 nM RSL3 or 10 μM ferrostatin-1
Method: RNA was extracted using the Qiashredder and QIAGEN RNeasy Mini kits (QIAGEN) according to the manufacturer's protocol. 2 μg total RNA for each sample was used as input for each reverse transcription reaction. Quantitative PCR reactions were performed using the Power SYBR Green PCR Master Mix (Thermo Fisher Scientific). Triplicate samples per condition were analyzed on an Applied Biosystems 7300 qPCR instrument using absolute quantification settings. Differences in mRNA levels compared to ACTB internal reference control were computed between control and experimental conditions using the ΔΔCt method. The primers used in this study are listed below.

[3] = test system: SK-LMS-1 cells; experiment: Clonogenic assay with radiation, SK-LMS-1; type: cell-based
Method: (§1) 500 cells were seeded per well in 6-well plates in their respective growth media and incubated overnight. The next day, cells were co-treated with DMSO or compounds and radiation using a Gammacell 40 Caesium-137 irradiator (Theratronics). Plates were monitored every day using a light microscope for formation of colonies in the DMSO-treated wells. When colonies of >50 cells are clearly visible, the growth medium was discarded from all plates. The cells were washed with PBS, then fixed and stained with crystal violet solution (0.05% crystal violet, 1% formaldehyde, 1% methanol in PBS). Colonies were then directly visualized and counted.
(§2) The coefficient of drug interaction (CDI), used to compute interaction between two drugs, was used to quantify synergy between cell death inducers and radiation according to the formula CDI=AB/(A×B), where AB is the surviving fraction of the combination treatment, and A and B are the surviving fractions of the individual treatments. […]
(§3) It was then tested whether cell death enhancement of radiation with ferroptosis inducers occurred across diverse tumor cell types. […] In addition to the initial ferroptosis-sensitive HT-1080 sarcoma cell line, glioma and lung cancer cells were evaluated, due to the clinical relevance of radiation therapy for the treatment of these tumor types. […]

[4] = test system: PC9 cells; experiment: Clonogenic assay with radiation, PC9; type: cell-based
Method: as §1, §2, §3

[5] = type: in vivo; settings: 40 mg/kg IKE i.p. 14 days, with or without 6 Gy radiation
[6] = test system: cleaved caspase-3; experiment: Western blot of cleaved caspase-3; type: cell-based; settings: for Cleaved caspase-3, added to radiation: HT-1080, 6 Gy, 24 h; for Cleavage of caspase-3, compound alone: HT-1080, IKE or RSL3 24 h, staurosporine 500 nM for 6 h
Method: 1 million cells were seeded in 10 cm dishes and treated with compounds and/or radiation on the next day. […] After quantification by Bradford, samples were mixed with 5×SDS loading buffer and separated by SDS-polyacrylamide gel electrophoresis. After transfer, membranes were blocked for 10 min in Tris-buffered saline (pH 7.4) with 1% Tween-20 (TBS-T) with 5% milk and incubated in primary antibody overnight at 4° C. Following 3× for 5 min washes in TBS-T, the membrane was incubated with secondary antibodies for 1 hr. The membrane was washed again in TBST 3× for 5 min prior to visualization using enhanced chemiluminescence (ECL Western Blotting Substrate, Pierce). Antibody for cleaved caspase 3 (Cell Signaling Technology, #9661) was used at 1:1000 and detected using a Peroxidase AffiniPure Goat Anti-Rabbit IgG (H+L) (Jackson ImmunoResearch, 111-295-144) at 1:5000 dilution.
DNA damage is a potent inducer of apoptosis. […] Despite this, some quantity of 17-kDa cleaved caspase-3 was still detectable in the Z-VAD-FMK-treated sample. To further check for potential radiation-induced apoptosis in this model at a later time point, we attempted to rescue the effects of radiation using 100 μM Z-VAD-FMK after 48, 72, and 96 h (FIG. 10).

[7] = test system: HT-1080 cells; experiment: Microbeam irradiation and clonogenic assay; type: cell-based; settings: HT-1080, clonogenic survival
Method: 300-500 HT-1080 cells were plated on polypropylene film treated with 3.5 μg/cm^2 Cell-Tak adhesive (BD Biosciences). The next day, cells were stained with Hoechst 33342 for 30 min. Cells were imaged, and their center-of-gravity coordinates were registered to automatically locate them by the microbeam control program. For nuclear irradiation, protons (^1H+) were directed by a precision beam to the center of the nucleus. For cytoplasmic irradiation, protons were directed to two locations 7 μm away from the ends of the major axis of each nucleus, as previously described (Wu et al., 1999). In each case, the beam has an accuracy of ±0.2 μm with 95% efficiency. Post-irradiation, cells were trypsinized and re-plated at a density of 500 cells per well in 6-well plates for clonogenic assays.
To target the microbeam, cells were labeled with Hoechst stain and imaged. Nuclear radiation was delivered to the center of gravity of the cell nucleus, whereas cytoplasmic radiation was delivered to two sites 7 microns away from the nuclear edge along the nuclear long axis (FIG. 5A). Using this method, we first established dose responses of these cells to nuclear and cytoplasmic radiation. […] Compared to conventional photon radiation, these doses approximately correspond to 1 Gy to the nucleus and between 1-5 Gy to the cytoplasm, a therapeutically relevant dose range that is consistent with our previous experiments.

Structure (SMILES): CCOC(=O)c1ccc(NC2CCCCC2)c(N)c1 [ferrostatin-1]
- ROS accumulation with IKE and radiation, ferrostatin-1 co-treatment ([1]; 10 μM ferrostatin-1): partially suppressible
- PTGS2 mRNA [2]: reversed this induction of PTGS2

Structure (SMILES): CC(C)Oc1ccc(C(=O)Cn2ccnc2)cc1-n1c(CN2CCN(C(=O)COc3ccc(Cl)cc3)CC2)nc2ccccc2c1=O [IKE, imidazole ketone erastin]
- Highest observed coefficient of Drug Interaction (CDI) in combination with IR [3]: 0.48
- Highest observed coefficient of Drug Interaction (CDI) in combination with IR [4]: 0.70
- ROS generation (H2DCFDA), combination with radiation vs control ([1]; 10 μM IKE, 2 Gy radiation, 24 hours, three responsive slice cultures): significant enhancement of ROS generation
- Tolerability (weight loss) [5]: well tolerated
- Cleaved caspase-3, added to radiation [6]: did not further increase the amount of cleaved caspase-3
- Cleavage of caspase-3, compound alone [6]: did not induce detectable cleavage of caspase-3
- Synergy with cytoplasmic microbeam radiation [7]: synergized strongly

Structure (SMILES): COC(=O)c1ccc([C@@H]2c3[nH]c4ccccc4c3C[C@@H](C(=O)OC)N2C(=O)CCl)cc1 [RSL3, Ras Synthetic Lethal 3]
- Highest observed coefficient of Drug Interaction (CDI) in combination with IR [3]: 0.31
- Highest observed coefficient of Drug Interaction (CDI) in combination with IR [4]: 0.64
- Cleaved caspase-3, added to radiation [6]: did not further increase the amount of cleaved caspase-3
- Cleavage of caspase-3, compound alone [6]: did not induce detectable cleavage of caspase-3
- PTGS2 mRNA [2]: even further enhanced
- Synergy with cytoplasmic microbeam radiation [7]: synergized strongly
- Synergy with nuclear microbeam radiation [7]: no synergy
